*1 amine or outer side, *2 acyl side, *3 side chain or, on linkers, in order; H or OH if unused. Where a SMILES comes first, the peptide text is derived from it. The star is where a group is joined. AMC = Cc1cc(=O)oc2cc(N*)ccc12; Suc = O=C(CCC(=O)[*:2])[*:1]; Decanoyl = CCCCCCCCCC(=O)*
Columns and labels:
[1] = target: T1, NAD-dependent protein deacetylase sirtuin-7 (Homo sapiens) (UniProt Q9NRC8); test: Substrate activity at human N-terminal His-tagged SIRT7 (68 to 354 residues) expressed in Escherichia coli at 0.5 uM measured after 2 hrs in presence of NAD+ and trypsin by fluorescence assay
T1 sequence (whole entry): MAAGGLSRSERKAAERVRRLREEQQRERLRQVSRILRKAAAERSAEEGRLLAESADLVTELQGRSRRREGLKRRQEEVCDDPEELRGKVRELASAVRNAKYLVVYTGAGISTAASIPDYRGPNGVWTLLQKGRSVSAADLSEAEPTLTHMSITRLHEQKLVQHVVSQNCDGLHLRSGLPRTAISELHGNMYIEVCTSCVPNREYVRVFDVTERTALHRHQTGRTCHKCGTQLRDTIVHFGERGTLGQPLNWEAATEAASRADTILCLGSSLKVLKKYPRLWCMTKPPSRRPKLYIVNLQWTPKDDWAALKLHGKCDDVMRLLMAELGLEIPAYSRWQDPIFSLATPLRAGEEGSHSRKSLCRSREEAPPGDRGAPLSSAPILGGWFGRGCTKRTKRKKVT

[2] = target: NAD-dependent protein deacylase sirtuin-6 (Homo sapiens) (UniProt Q8N6T7); test: Substrate activity at human N-terminal His-tagged SIRT6 (1 to 355 residues) expressed in Escherichia coli at 0.5 uM measured after 2 hrs in presence of NAD+ and trypsin by fluorescence assay
NAD-dependent protein deacylase sirtuin-6 (Homo sapiens), sequence (Q8N6T7 whole entry, the tested form may be a part): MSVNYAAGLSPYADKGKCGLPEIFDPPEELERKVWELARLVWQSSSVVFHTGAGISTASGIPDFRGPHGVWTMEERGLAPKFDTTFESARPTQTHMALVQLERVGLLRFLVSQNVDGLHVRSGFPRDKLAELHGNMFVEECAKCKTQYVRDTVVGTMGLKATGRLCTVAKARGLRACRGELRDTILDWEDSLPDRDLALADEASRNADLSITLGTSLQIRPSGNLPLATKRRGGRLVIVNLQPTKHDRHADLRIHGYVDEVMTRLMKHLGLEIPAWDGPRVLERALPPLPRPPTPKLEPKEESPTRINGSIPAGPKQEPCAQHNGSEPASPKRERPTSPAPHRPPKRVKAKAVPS

[3] = target: NAD-dependent protein deacylase sirtuin-5, mitochondrial (Homo sapiens) (UniProt Q9NXA8); test: Substrate activity at human N-terminal His-tagged SIRT5 (34 to 302 residues) expressed in Escherichia coli at 0.5 uM measured after 2 hrs in presence of NAD+ and trypsin by fluorescence assay
NAD-dependent protein deacylase sirtuin-5, mitochondrial (Homo sapiens), sequence (Q9NXA8 37-310 limits assumed): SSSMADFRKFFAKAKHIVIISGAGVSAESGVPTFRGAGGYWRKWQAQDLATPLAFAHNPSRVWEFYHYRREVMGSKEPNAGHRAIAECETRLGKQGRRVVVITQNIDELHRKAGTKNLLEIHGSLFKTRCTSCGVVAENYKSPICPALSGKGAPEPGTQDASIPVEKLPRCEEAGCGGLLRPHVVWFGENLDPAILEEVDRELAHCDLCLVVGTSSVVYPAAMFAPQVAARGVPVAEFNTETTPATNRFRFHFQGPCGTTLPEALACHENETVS

[4] = target: T2, NAD-dependent protein deacetylase sirtuin-3, mitochondrial (Homo sapiens) (UniProt Q9NTG7); test: Substrate activity at human N-terminal His-tagged SIRT3 (122 to 391 residues) expressed in Escherichia coli at 0.5 uM measured after 2 hrs in presence of NAD+ and trypsin by fluorescence assay
T2 sequence (whole entry): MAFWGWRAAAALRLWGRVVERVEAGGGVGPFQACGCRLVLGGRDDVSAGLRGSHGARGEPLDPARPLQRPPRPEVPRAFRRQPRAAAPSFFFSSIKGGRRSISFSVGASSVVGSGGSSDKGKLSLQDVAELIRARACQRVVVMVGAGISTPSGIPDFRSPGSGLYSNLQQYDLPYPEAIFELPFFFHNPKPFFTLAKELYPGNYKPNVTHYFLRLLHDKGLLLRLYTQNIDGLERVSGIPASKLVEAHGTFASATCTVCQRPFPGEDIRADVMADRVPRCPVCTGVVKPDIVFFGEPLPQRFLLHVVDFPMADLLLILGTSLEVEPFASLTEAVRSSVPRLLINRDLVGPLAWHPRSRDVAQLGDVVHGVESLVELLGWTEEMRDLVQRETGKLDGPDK

[5] = target: T3, NAD-dependent protein deacetylase sirtuin-2 (Homo sapiens) (UniProt Q8IXJ6); test: Substrate activity at human N-terminal His-tagged SIRT2 (56 to 356 residues) expressed in Escherichia coli at 0.5 uM measured after 2 hrs in presence of NAD+ and trypsin by fluorescence assay
T3 sequence (whole entry): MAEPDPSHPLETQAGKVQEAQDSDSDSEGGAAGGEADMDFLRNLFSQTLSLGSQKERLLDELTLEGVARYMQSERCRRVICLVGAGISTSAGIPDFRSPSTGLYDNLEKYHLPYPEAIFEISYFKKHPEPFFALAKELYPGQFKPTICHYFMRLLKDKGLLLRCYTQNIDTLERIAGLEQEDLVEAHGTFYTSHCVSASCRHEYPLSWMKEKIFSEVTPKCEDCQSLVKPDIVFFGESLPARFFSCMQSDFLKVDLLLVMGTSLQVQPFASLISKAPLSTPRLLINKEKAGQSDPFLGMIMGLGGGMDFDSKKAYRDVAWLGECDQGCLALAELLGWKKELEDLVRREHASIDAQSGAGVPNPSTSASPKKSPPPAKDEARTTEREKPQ

[6] = target: T4, NAD-dependent protein deacetylase sirtuin-1 (Homo sapiens) (UniProt Q96EB6); test: Substrate activity at human N-terminal His-tagged SIRT1 (183 to 664 residues) expressed in Escherichia coli at 0.5 uM measured after 2 hrs in presence of NAD+ and trypsin by fluorescence assay
T4 sequence (whole entry): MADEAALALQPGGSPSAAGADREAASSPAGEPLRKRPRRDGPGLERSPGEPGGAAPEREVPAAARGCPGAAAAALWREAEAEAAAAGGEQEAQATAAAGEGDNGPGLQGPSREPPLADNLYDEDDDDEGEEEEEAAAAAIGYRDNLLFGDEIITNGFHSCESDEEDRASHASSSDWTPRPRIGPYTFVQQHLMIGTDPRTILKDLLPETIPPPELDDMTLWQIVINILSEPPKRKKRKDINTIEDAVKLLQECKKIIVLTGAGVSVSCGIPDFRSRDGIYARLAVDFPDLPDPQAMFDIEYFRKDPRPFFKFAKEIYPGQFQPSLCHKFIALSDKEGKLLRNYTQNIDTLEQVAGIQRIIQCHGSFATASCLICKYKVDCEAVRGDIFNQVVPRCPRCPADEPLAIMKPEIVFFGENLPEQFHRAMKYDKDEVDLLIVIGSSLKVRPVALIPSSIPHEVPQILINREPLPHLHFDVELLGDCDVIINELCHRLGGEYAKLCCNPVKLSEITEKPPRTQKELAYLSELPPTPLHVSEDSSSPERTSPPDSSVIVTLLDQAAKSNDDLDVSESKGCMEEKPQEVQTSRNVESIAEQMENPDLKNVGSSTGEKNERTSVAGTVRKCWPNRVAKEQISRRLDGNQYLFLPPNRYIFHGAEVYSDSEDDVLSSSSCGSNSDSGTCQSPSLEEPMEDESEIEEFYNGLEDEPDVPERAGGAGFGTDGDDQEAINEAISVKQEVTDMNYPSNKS

[7] = target: T1, NAD-dependent protein deacetylase sirtuin-7 (Homo sapiens); test: Substrate activity at human N-terminal His-tagged SIRT7 (68 to 354 residues) expressed in Escherichia coli at 5 uM measured after 2 hrs in presence of NAD+ and trypsin by fluorescence assay
[8] = target: NAD-dependent protein deacylase sirtuin-6 (Homo sapiens) (UniProt Q8N6T7); test: Substrate activity at human N-terminal His-tagged SIRT6 (1 to 355 residues) expressed in Escherichia coli at 5 uM measured after 2 hrs in presence of NAD+ and trypsin by fluorescence assay
[9] = target: NAD-dependent protein deacylase sirtuin-5, mitochondrial (Homo sapiens) (UniProt Q9NXA8); test: Substrate activity at human N-terminal His-tagged SIRT5 (34 to 302 residues) expressed in Escherichia coli at 5 uM measured after 2 hrs in presence of NAD+ and trypsin by fluorescence assay
[10] = target: T2, NAD-dependent protein deacetylase sirtuin-3, mitochondrial (Homo sapiens); test: Substrate activity at human N-terminal His-tagged SIRT3 (122 to 391 residues) expressed in Escherichia coli at 5 uM measured after 2 hrs in presence of NAD+ and trypsin by fluorescence assay
[11] = target: T3, NAD-dependent protein deacetylase sirtuin-2 (Homo sapiens); test: Substrate activity at human N-terminal His-tagged SIRT2 (56 to 356 residues) expressed in Escherichia coli at 5 uM measured after 2 hrs in presence of NAD+ and trypsin by fluorescence assay
[12] = target: T4, NAD-dependent protein deacetylase sirtuin-1 (Homo sapiens); test: Substrate activity at human N-terminal His-tagged SIRT1 (183 to 664 residues) expressed in Escherichia coli at 5 uM measured after 2 hrs in presence of NAD+ and trypsin by fluorescence assay
[13] = target: T1, NAD-dependent protein deacetylase sirtuin-7 (Homo sapiens); test: Substrate activity at human N-terminal His-tagged SIRT7 (68 to 354 residues) expressed in Escherichia coli at 50 uM measured after 2 hrs in presence of NAD+ and trypsin by fluorescence assay
[14] = target: NAD-dependent protein deacylase sirtuin-6 (Homo sapiens) (UniProt Q8N6T7); test: Substrate activity at human N-terminal His-tagged SIRT6 (1 to 355 residues) expressed in Escherichia coli at 50 uM measured after 2 hrs in presence of NAD+ and trypsin by fluorescence assay
[15] = target: NAD-dependent protein deacylase sirtuin-5, mitochondrial (Homo sapiens) (UniProt Q9NXA8); test: Substrate activity at human N-terminal His-tagged SIRT5 (34 to 302 residues) expressed in Escherichia coli at 50 uM measured after 2 hrs in presence of NAD+ and trypsin by fluorescence assay
[16] = target: T2, NAD-dependent protein deacetylase sirtuin-3, mitochondrial (Homo sapiens); test: Substrate activity at human N-terminal His-tagged SIRT3 (122 to 391 residues) expressed in Escherichia coli at 50 uM measured after 2 hrs in presence of NAD+ and trypsin by fluorescence assay
[17] = target: T3, NAD-dependent protein deacetylase sirtuin-2 (Homo sapiens); test: Substrate activity at human N-terminal His-tagged SIRT2 (56 to 356 residues) expressed in Escherichia coli at 50 uM measured after 2 hrs in presence of NAD+ and trypsin by fluorescence assay
[18] = target: T4, NAD-dependent protein deacetylase sirtuin-1 (Homo sapiens); test: Substrate activity at human N-terminal His-tagged SIRT1 (183 to 664 residues) expressed in Escherichia coli at 50 uM measured after 2 hrs in presence of NAD+ and trypsin by fluorescence assay

| Activity [1] | Activity [2] | Activity [3] | Activity [4] | Activity [5] | Activity [6] | Activity [7] | Activity [8] | Activity [9] | Activity [10] | Activity [11] | Activity [12] | Activity [13] | Activity [14] | Activity [15] | Activity [16] | Activity [17] | Activity [18] | Compound |
| --- | --- | --- | --- | --- | --- | --- | --- | --- | --- | --- | --- | --- | --- | --- | --- | --- | --- | --- |
| 0.39 RFU | 0.48 RFU | 0.26 RFU | 0.32 RFU | 0.31 RFU | 0.31 RFU | 0.65 RFU | 0.36 RFU | 0.29 RFU | 1.29 RFU | 1.13 RFU | 3.38 RFU | 0.58 RFU | 0.58 RFU | 0.81 RFU | 7.07 RFU | 6.75 RFU | 21.2 RFU | CC(=O)NCCCC[C@H](NC(=O)[C@H](CO)NC(=O)[C@H](Cc1ccccc1)NC(=O)[C@H](CC(=O)O)NC(C)=O)C(=O)Nc1ccc2c(C)cc(=O)oc2c1 (Ac-DFSK(Ac)-{AMC}) |
| 0.34 RFU | 0.51 RFU | 0.24 RFU | 0.4 RFU | 0.26 RFU | 0.26 RFU | 0.3 RFU | 0.62 RFU | 0.36 RFU | 0.51 RFU | 1.03 RFU | 0.89 RFU | 1.5 RFU | 1.5 RFU | 1.54 RFU | 1.79 RFU | 2.6 RFU | 2.28 RFU | CCCCCCCCCC(=O)NCCCC[C@H](NC(=O)[C@H](CCCNC(=N)N)NC(=O)[C@H](CC(C)C)NC(=O)[C@H](CC(=O)O)NC(C)=O)C(=O)Nc1ccc2c(C)cc(=O)oc2c1 (Ac-DLRK(Decanoyl)-{AMC}) |
| 0.29 RFU | 0.4 RFU | 0.32 RFU | 0.49 RFU | 0.21 RFU | 0.21 RFU | 0.34 RFU | 0.44 RFU | 0.82 RFU | 0.64 RFU | 0.33 RFU | 0.55 RFU | 1.89 RFU | 1.89 RFU | 2.63 RFU | 2.47 RFU | 1.03 RFU | 2.05 RFU | CC[C@H](C)[C@H](NC(C)=O)C(=O)N[C@@H](CCCNC(=N)N)C(=O)N[C@H](C(=O)N[C@@H](CCCCNC(=O)CCC(=O)O)C(=O)Nc1ccc2c(C)cc(=O)oc2c1)[C@@H](C)CC (Ac-IRIK(Suc)-{AMC}) |
| 0.6 RFU | 0.46 RFU | 0.28 RFU | 0.51 RFU | 1.68 RFU | 1.68 RFU | 0.44 RFU | 0.74 RFU | 0.24 RFU | 0.73 RFU | 1.72 RFU | 0.74 RFU | 1.09 RFU | 1.09 RFU | 0.78 RFU | 0.85 RFU | 3.19 RFU | 1.1 RFU | CCCCCCCCCC(=O)NCCCC[C@H](NC(=O)[C@H](CCC(N)=O)NC(=O)[C@@H](NC(=O)[C@H](CCCCN)NC(C)=O)C(C)C)C(=O)Nc1ccc2c(C)cc(=O)oc2c1 (Ac-KVQK(Decanoyl)-{AMC}) |
| 0.29 RFU | 0.39 RFU | 0.31 RFU | 0.51 RFU | 0.29 RFU | 0.29 RFU | 0.49 RFU | 0.42 RFU | 0.34 RFU | 0.79 RFU | 1.18 RFU | 0.76 RFU | 1.32 RFU | 1.32 RFU | 1.99 RFU | 3.19 RFU | 5.3 RFU | 2.87 RFU | CCCCCCCCCC(=O)NCCCC[C@H](NC(=O)[C@H](CCCCN)NC(=O)[C@@H]1CCCN1C(=O)[C@H](CC(N)=O)NC(C)=O)C(=O)Nc1ccc2c(C)cc(=O)oc2c1 (Ac-NPKK(Decanoyl)-{AMC}) |
| 0.38 RFU | 0.49 RFU | 0.27 RFU | 0.34 RFU | 0.23 RFU | 0.23 RFU | 0.32 RFU | 0.36 RFU | 0.28 RFU | 0.41 RFU | 0.24 RFU | 0.37 RFU | 0.44 RFU | 0.44 RFU | 1.02 RFU | 0.67 RFU | 0.52 RFU | 1.21 RFU | CC(=O)NCCCC[C@H](NC(=O)[C@H](CCCNC(=N)N)NC(=O)[C@H](CO)NC(=O)[C@H](CC(N)=O)NC(C)=O)C(=O)Nc1ccc2c(C)cc(=O)oc2c1 (Ac-NSRK(Ac)-{AMC}) |

From ChEMBL document CHEMBL4680222, “Sensitive fluorogenic substrates for sirtuin deacylase inhibitor discovery” (Eur J Med Chem, 2020)
